In PubChem BioAssay (NCI):
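Five concentrations, 48 hours, 96-well plates. GI50: concentration for 50% inhibition of growth. TGI: concentration producing complete growth inhibition.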

Legend:
Experiment in all cases: NCI-60 cell line screen, 48 h
CCRF-CEM leukemia = system: CCRF-CEM leukemia
IGROV1 ovarian = system: IGROV1 ovarian
SK-OV-3 ovarian = system: SK-OV-3 ovarian
LOX IMVI melanoma = system: LOX IMVI melanoma
NCI-H23 lung = system: NCI-H23 lung
SK-MEL-5 melanoma = system: SK-MEL-5 melanoma
MCF7 breast = system: MCF7 breast
T-47D breast = system: T-47D breast
A498 renal = system: A498 renal
SF-268 CNS = system: SF-268 CNS
SF-539 CNS = system: SF-539 CNS
KM12 colon = system: KM12 colon
COLO 205 colon = system: COLO 205 colon
MALME-3M melanoma = system: MALME-3M melanoma
DU-145 prostate = system: DU-145 prostate
EKVX NSCLC = system: EKVX NSCLC
SNB-75 CNS = system: SNB-75 CNS
OVCAR-3 ovarian = system: OVCAR-3 ovarian
UACC-62 melanoma = system: UACC-62 melanoma
OVCAR-8 ovarian = system: OVCAR-8 ovarian
K-562 leukemia = system: K-562 leukemia
CAKI-1 renal = system: CAKI-1 renal
HT29 colon = system: HT29 colon
A549 NSCLC = system: A549 NSCLC
U251 CNS = system: U251 CNS
MDA-MB-435 = system: MDA-MB-435
HL-60(TB) leukemia = system: HL-60(TB) leukemia
UACC-257 melanoma = system: UACC-257 melanoma
M14 melanoma = system: M14 melanoma
HOP-92 NSCLC = system: HOP-92 NSCLC
PC-3 prostate = system: PC-3 prostate
786-0 renal = system: 786-0 renal
OVCAR-5 ovarian = system: OVCAR-5 ovarian
SNB-19 CNS = system: SNB-19 CNS
SR leukemia = system: SR leukemia
MDA-MB-231 breast = system: MDA-MB-231 breast
TK-10 renal = system: TK-10 renal
NCI-H226 lung = system: NCI-H226 lung
BT-549 breast = system: BT-549 breast
SN12C renal = system: SN12C renal
NCI/ADR-RES ovarian = system: NCI/ADR-RES ovarian
SK-MEL-2 melanoma = system: SK-MEL-2 melanoma
HCT-15 colon = system: HCT-15 colon
HOP-62 NSCLC = system: HOP-62 NSCLC
SK-MEL-28 melanoma = system: SK-MEL-28 melanoma
NCI-H522 lung = system: NCI-H522 lung
HS 578T breast = system: HS 578T breast
NCI-H460 lung = system: NCI-H460 lung
UO-31 renal = system: UO-31 renal
RXF 393 renal = system: RXF 393 renal
RPMI-8226 leukemia = system: RPMI-8226 leukemia
SF-295 CNS = system: SF-295 CNS
HCC-2998 colon = system: HCC-2998 colon
ACHN renal = system: ACHN renal
MOLT-4 leukemia = system: MOLT-4 leukemia
OVCAR-4 ovarian = system: OVCAR-4 ovarian
HCT-116 colon = system: HCT-116 colon
SW-620 colon = system: SW-620 colon

What does the source list for `COc1ccc(C(C)=C(c2ccc(OCCN(C)C)cc2)c2ccc(OCCN(C)C)cc2)cc1`?
GI50 (CCRF-CEM leukemia): 624 nM; TGI (CCRF-CEM leukemia): 2360 nM; GI50 (IGROV1 ovarian): 1100 nM; TGI (IGROV1 ovarian): 3.92 µM; GI50 (SK-OV-3 ovarian): 3.91 µM; TGI (SK-OV-3 ovarian): 7.51 µM; GI50 (LOX IMVI melanoma): 343 nM; TGI (LOX IMVI melanoma): 741 nM; GI50 (NCI-H23 lung): 2950 nM; TGI (NCI-H23 lung): 6.53 µM; GI50 (SK-MEL-5 melanoma): 432 nM; TGI (SK-MEL-5 melanoma): 794 nM; GI50 (MCF7 breast): 243 nM; TGI (MCF7 breast): 889 nM; GI50 (T-47D breast): 374 nM; TGI (T-47D breast): 966 nM; GI50 (A498 renal): 1130 nM; TGI (A498 renal): 4.15 µM; GI50 (SF-268 CNS): 1110 nM; TGI (SF-268 CNS): 4.35 µM; GI50 (SF-539 CNS): 468 nM; TGI (SF-539 CNS): 948 nM; GI50 (KM12 colon): 1070 nM; TGI (KM12 colon): 4.21 µM; GI50 (COLO 205 colon): 432 nM; TGI (COLO 205 colon): 908 nM; GI50 (MALME-3M melanoma): 439 nM; TGI (MALME-3M melanoma): 893 nM; GI50 (DU-145 prostate): 1810 nM; TGI (DU-145 prostate): 5.18 µM; GI50 (EKVX NSCLC): 1650 nM; TGI (EKVX NSCLC): 5.25 µM; GI50 (SNB-75 CNS): 2280 nM; TGI (SNB-75 CNS): 5.95 µM; GI50 (OVCAR-3 ovarian): 585 nM; TGI (OVCAR-3 ovarian): 1790 nM; GI50 (UACC-62 melanoma): 533 nM; TGI (UACC-62 melanoma): 1250 nM; GI50 (OVCAR-8 ovarian): 1170 nM; TGI (OVCAR-8 ovarian): 4.54 µM; GI50 (K-562 leukemia): 395 nM; TGI (K-562 leukemia): 918 nM; GI50 (CAKI-1 renal): 647 nM; TGI (CAKI-1 renal): 2310 nM; GI50 (HT29 colon): 490 nM; TGI (HT29 colon): 1630 nM; GI50 (A549 NSCLC): 1030 nM; TGI (A549 NSCLC): 4.48 µM; GI50 (U251 CNS): 679 nM; TGI (U251 CNS): 2610 nM; GI50 (MDA-MB-435): 507 nM; TGI (MDA-MB-435): 1130 nM; GI50 (HL-60(TB) leukemia): 477 nM; TGI (HL-60(TB) leukemia): 999 nM; GI50 (UACC-257 melanoma): 469 nM; TGI (UACC-257 melanoma): 957 nM; GI50 (M14 melanoma): 427 nM; TGI (M14 melanoma): 824 nM; GI50 (HOP-92 NSCLC): 633 nM; TGI (HOP-92 NSCLC): 3.17 µM; GI50 (PC-3 prostate): 1360 nM; TGI (PC-3 prostate): 4.81 µM; GI50 (786-0 renal): 445 nM; TGI (786-0 renal): 1100 nM; GI50 (OVCAR-5 ovarian): 1720 nM; TGI (OVCAR-5 ovarian): 5.01 µM; GI50 (SNB-19 CNS): 1330 nM; TGI (SNB-19 CNS): 4.86 µM; GI50 (SR leukemia): 321 nM; TGI (SR leukemia): 941 nM; GI50 (MDA-MB-231 breast): 684 nM; TGI (MDA-MB-231 breast): 2290 nM; GI50 (TK-10 renal): 3.31 µM; TGI (TK-10 renal): 6.86 µM; GI50 (NCI-H226 lung): 3.03 µM; TGI (NCI-H226 lung): 6.89 µM; GI50 (BT-549 breast): 1850 nM; TGI (BT-549 breast): 5.24 µM; GI50 (SN12C renal): 2000 nM; TGI (SN12C renal): 6.09 µM; GI50 (NCI/ADR-RES ovarian): 1340 nM; TGI (NCI/ADR-RES ovarian): 4.68 µM; GI50 (SK-MEL-2 melanoma): 588 nM; TGI (SK-MEL-2 melanoma): 1390 nM; GI50 (HCT-15 colon): 582 nM; TGI (HCT-15 colon): 2050 nM; GI50 (HOP-62 NSCLC): 1360 nM; TGI (HOP-62 NSCLC): 3.42 µM; GI50 (SK-MEL-28 melanoma): 464 nM; TGI (SK-MEL-28 melanoma): 904 nM; GI50 (NCI-H522 lung): 866 nM; TGI (NCI-H522 lung): 3.62 µM; GI50 (HS 578T breast): 884 nM; TGI (HS 578T breast): 4.25 µM; GI50 (NCI-H460 lung): 828 nM; TGI (NCI-H460 lung): 2940 nM; GI50 (UO-31 renal): 804 nM; TGI (UO-31 renal): 2110 nM; GI50 (RXF 393 renal): 381 nM; TGI (RXF 393 renal): 934 nM; GI50 (RPMI-8226 leukemia): 584 nM; TGI (RPMI-8226 leukemia): 1510 nM; GI50 (SF-295 CNS): 510 nM; TGI (SF-295 CNS): 1180 nM; GI50 (HCC-2998 colon): 858 nM; TGI (HCC-2998 colon): 3.49 µM; GI50 (ACHN renal): 763 nM; TGI (ACHN renal): 2510 nM; GI50 (MOLT-4 leukemia): 544 nM; TGI (MOLT-4 leukemia): 1610 nM; GI50 (OVCAR-4 ovarian): 865 nM; TGI (OVCAR-4 ovarian): 3.25 µM; GI50 (HCT-116 colon): 415 nM; TGI (HCT-116 colon): 2450 nM; GI50 (SW-620 colon): 639 nM; TGI (SW-620 colon): 2220 nM
